Values of other authors in patent US20110195912A1, “Oligomer-Protease Inhibitor Conjugates” (Nektar Therapeutics, priority 2008, published 2011).
Read-outs that look alike come from different tables or passages of the source.

Key:
HCV genotype 1 [1] = conditions: 100-400 mg twice daily; patients with HCV genotype 1 that had failed pegIFN-α 2a therapy
HCV genotype 1 [2] = conditions: 200 or 400 mg thrice daily, 14 days; non-responder patients with HCV genotype 1
HCV = conditions: monotherapy, twice daily doses for 14 days
[3] = rat; twice daily oral dosing for seven days
[4] = monkey; twice daily oral dosing for seven days

Row | Structure (SMILES) | antiviral activity as a monotherapy (HCV genotype 1 [1]) | efficacy in combination with pegIFN-α2a (HCV genotype 1 [2]) | viral RNA levels (HCV) | liver trough concentrations following the last dose [3] | liver trough concentrations following the last dose [4]
1 | CC(C)(C)NC(=O)N[C@H](C(=O)N1CC2[C@@H]([C@H]1C(=O)NC(CC1CCC1)C(=O)C(N)=O)C2(C)C)C(C)(C)C (some centres unmarked) [Boceprevir] | demonstrated antiviral activity | efficacious |  |  | 
2 | CC(C)(C)OC(=O)N[C@H]1CCCCC/C=C\[C@@H]2C[C@@]2(C(=O)NS(=O)(=O)C2CC2)NC(=O)[C@@H]2C[C@@H](OC(=O)N3Cc4cccc(F)c4C3)CN2C1=O [ITMN-191] |  |  | rapid reduction in viral RNA levels | in excess of in vitro EC90 values | in excess of in vitro EC90 values
